Here are results for 69 compounds from patent publication US20260053861A1, “CELL COMPOSITIONS AND METHODS OF USING THE SAME” (THE REGENTS OF THE UNIVERSITY OF CALIFORNIA, priority 2022, published 2026).

Structures can show the parent of a compound that is named as a salt.

One test concerns hPSC-SCs.
Conditions: not given
For `C#C[C@]1(O)CC[C@H]2[C@@H]3CCC4=CC(=O)CC[C@]4(C)[C@H]3CC[C@@]21C` [Ethisterone], the z.score.t amounted to 0.2916.

On to `CCOC(=O)c1cncn1[C@H](C)c1ccccc1` [Etomidate], for which the z.score.t is listed as −0.1902.

As for `CC(C)c1c(CN(C)C(C)Cc2ccccc2)n(C)n(-c2ccccc2)c1=O` (stereo not drawn) [Famprofazone], the z.score.t is on record as −1.288.

As to `CC(Cc1ccc(O)cc1)NCC(O)c1cc(O)cc(O)c1` (stereo not drawn) [Fenoterol hydrobromide], the z.score.t was 0.8992.

As to `C/C=C1/C[N@+]2(C)CC[C@]34C(=C(C=O)[C@H]1C[C@@H]32)Nc1ccccc14.[Cl-]` [Fluorocurarine chloride], the z.score.t was found to be 1.364.

`CCCCc1ccc(C(=O)O)nc1` [Fusaric acid] yielded a z.score.t of 1.345.

The compound `NCC1(CC(=O)O)CCCCC1` [Gabapentin] showed a z.score.t of −0.496.

The compound `COc1ccc2c3c1O[C@H]1C[C@@H](O)C=C[C@@]31CCN(C)C2` [Galanthamine hydrobromide] returned a z.score.t of 0.8023.

In the case of `C=C[C@]12CN(C)[C@@H]3[C@H]4CO[C@H](C[C@H]41)[C@]1(C(=O)Nc4ccccc41)[C@@H]32` [Gelsemine], the z.score.t is reported as 1.601.

The same test, now with this note: HTS viability of hPSC-SCs in the presence of 30 mM glucose; Prestwick library; Table S4.
As to `CCN(CC)C(C)CN1c2ccccc2Sc2ccccc21` (stereo not drawn) [Ethopropazine hydrochloride], the z.score.t was determined as 0.2139.

On to `CCC1(C)CC(=O)NC1=O` (stereo not drawn) [Ethosuximide], for which the z.score.t came out at 0.4064.

As to `CCN1C(=O)NC(c2ccccc2)C1=O` (stereo not drawn) [Ethotoin], the z.score.t is reported as −0.6988.

As for `CCOc1ccc2c(c1)C(C)=CC(C)(C)N2` [Ethoxyquin], the z.score.t is −1.23.

Take `C#C[C@]1(OC(C)=O)CC[C@H]2[C@@H]3CCC4=C[C@@H](OC(C)=O)CC[C@@H]4[C@H]3CC[C@@]21C` [Ethynodiol diacetate]: the z.score.t was −0.3895.

Take `C#C[C@]1(O)CC[C@H]2[C@@H]3CCc4cc(OC)ccc4[C@H]3CC[C@@]21C` [Ethynylestradiol 3-methyl ether]: the z.score.t is on record as 0.9696.

`CC(O)(P(=O)(O)O)P(=O)(O)O` [Etidronic acid, disodium salt]: the z.score.t was −0.8317.

Turning to `CCc1cccc(CC)c1NC(=O)CN(CC(=O)O)CC(=O)O` [Etifenin], the z.score.t was 1.002.

For `CCNCC(O)c1cccc(O)c1` (stereo not drawn) [Etilefrine hydrochloride], the z.score.t is −0.4549.

With `CCc1cccc2c3c([nH]c12)C(CC)(CC(=O)O)OCC3` (stereo not drawn) [Etodolac], the z.score.t is reported as −0.139.

Turning to `Cn1c(=O)c2c(ncn2CCO)n(C)c1=O` [Etofylline], the z.score.t stood at 0.9225.

As for `COc1cc([C@@H]2c3cc4c(cc3[C@@H](O[C@@H]3O[C@@H]5CO[C@@H](C)O[C@H]5[C@H](O)[C@H]3O)[C@H]3COC(=O)[C@H]23)OCO4)cc(OC)c1O` [Etoposide], the z.score.t is listed as −1.576.

Take `CC1CC(OC(=O)C(O)c2ccccc2)CC(C)(C)N1C` (stereo not drawn) [Eucatropine hydrochloride]: the z.score.t was 0.0568.

In the case of `COc1c2ccoc2nc2c(OC)c(OCC(O)C(C)(C)O)ccc12` (stereo not drawn) [Evoxine], the z.score.t was 0.0116.

Take `NC(N)=Nc1nc(CSCCC(N)=NS(N)(=O)=O)cs1` [Famotidine]: the z.score.t is reported as 1.191.

`O=C(O)Cc1ccc(-c2ccccc2)cc1` [Felbinac]: the z.score.t is on record as −0.0788.

`CCOC(=O)C1=C(C)NC(C)=C(C(=O)OC)C1c1cccc(Cl)c1Cl` (stereo not drawn) [Felodipine]: the z.score.t is listed as 0.006455.

Consider `COC(=O)Nc1nc2ccc(Sc3ccccc3)cc2[nH]1` [Fenbendazole], for which the z.score.t is given as −1.607.

On to `O=C(O)CCC(=O)c1ccc(-c2ccccc2)cc1` [Fenbufen], for which the z.score.t was found to be 1.249.

For `CC(NCCC(c1ccccc1)c1ccccc1)c1ccccc1` (stereo not drawn) [Fendiline hydrochloride], the z.score.t is on record as −1.478.

In the case of `CC(C)OC(=O)C(C)(C)Oc1ccc(C(=O)c2ccc(Cl)cc2)cc1` [Fenofibrate], the z.score.t came out at 0.1742.

As for `CC(C(=O)O)c1cccc(Oc2ccccc2)c1` (stereo not drawn) [Fenoprofen calcium salt dihydrate], the z.score.t came to 0.1244.

For the compound `O=C1NCC2(CCN(CCc3ccccc3)CC2)O1` [Fenspiride hydrochloride], the z.score.t is listed as −0.01953.

For `CC(C)(C(=O)O)c1ccc(C(O)CCCN2CCC(C(O)(c3ccccc3)c3ccccc3)CC2)cc1` (stereo not drawn) [Fexofenadine HCl], the z.score.t is listed as −0.5086.

As to `COc1cc(C(=O)OC2CC3CCC(C2)N3C)ccc1O` (stereo not drawn) [Fillalbin], the z.score.t is recorded as 0.5365.

In the case of `CC(C)(C)NC(=O)[C@H]1CC[C@H]2[C@@H]3CC[C@H]4NC(=O)C=C[C@]4(C)[C@H]3CC[C@]12C` [Finasteride], the z.score.t is listed as −0.9741.

For `O=C(COc1ccc(Cl)cc1)N1CCN(Cc2ccc3c(c2)OCO3)CC1` [Fipexide hydrochloride], the z.score.t amounted to 0.5179.

With `Cc1c(-c2ccccc2)oc2c(C(=O)OCCN3CCCCC3)cccc2c1=O` [Flavoxate hydrochloride], the z.score.t is 1.21.

As for `O=C(NCC1CCCCN1)c1cc(OCC(F)(F)F)ccc1OCC(F)(F)F` (stereo not drawn) [Flecainide acetate], the z.score.t came out at 0.4105.

`CS(=O)(=O)c1ccc([C@@H](O)[C@@H](CF)NC(=O)C(Cl)Cl)cc1` [Florfenicol]: the z.score.t is on record as 0.5365.

With `Cc1onc(-c2c(F)cccc2Cl)c1C(=O)N[C@@H]1C(=O)N2[C@@H]1SC(C)(C)[C@@H]2C(=O)O` [Flucloxacillin sodium], the z.score.t is given as −1.056.

In the case of `Nc1[nH]c(=O)ncc1F` [Flucytosine], the z.score.t is listed as −0.05622.

Consider `CC(=O)OCC(=O)[C@@]1(O)CC[C@H]2[C@@H]3CCC4=CC(=O)CC[C@]4(C)[C@@]3(F)[C@@H](O)C[C@@]21C` [Fludrocortisone acetate], for which the z.score.t came out at 1.278.

On to `O=C(O)c1ccccc1Nc1cccc(C(F)(F)F)c1` [Flufenamic acid], for which the z.score.t is recorded as −1.003.

Turning to `Fc1ccc(C(c2ccc(F)cc2)N2CCN(C/C=C/c3ccccc3)CC2)cc1` [Flunarizine dihydrochloride], the z.score.t was −1.898.

For `CC1(C)O[C@@H]2C[C@H]3[C@@H]4C[C@H](F)C5=CC(=O)C=C[C@]5(C)[C@H]4[C@@H](O)C[C@]3(C)[C@]2(C(=O)CO)O1` [Flunisolide], the z.score.t is 1.612.

With `Cc1c(Nc2ncccc2C(=O)O)cccc1C(F)(F)F` [Flunixin meglumine], the z.score.t came to 1.117.

In the case of `CC(=O)OCC(=O)[C@@]12OC(C)(C)O[C@@H]1C[C@H]1[C@@H]3C[C@H](F)C4=CC(=O)C=C[C@]4(C)[C@@]3(F)[C@@H](O)C[C@@]12C` [Fluocinonide], the z.score.t is given as 0.2803.

Take `CC(=O)[C@@]1(O)CC[C@H]2[C@@H]3C[C@H](C)C4=CC(=O)C=C[C@]4(C)[C@@]3(F)[C@@H](O)C[C@@]21C` [Fluorometholone]: the z.score.t is reported as −0.9741.

For `CNCCC(Oc1ccc(C(F)(F)F)cc1)c1ccccc1` (stereo not drawn) [Fluoxetine hydrochloride], the z.score.t is recorded as −0.865.

In the case of `OCCN1CCN(CCCN2c3ccccc3Sc3ccc(C(F)(F)F)cc32)CC1` [Fluphenazine dihydrochloride], the z.score.t was −1.847.

Turning to `CC1(C)O[C@@H]2C[C@H]3[C@@H]4C[C@H](F)C5=CC(=O)CC[C@]5(C)[C@H]4[C@@H](O)C[C@]3(C)[C@]2(C(=O)CO)O1` [Flurandrenolide], the z.score.t is reported as 0.4741.

As for `CC(C(=O)O)c1ccc(-c2ccccc2)c(F)c1` (stereo not drawn) [Flurbiprofen], the z.score.t is listed as 1.824.

Turning to `O=C1NCN(c2ccccc2)C12CCN(CCCC(c1ccc(F)cc1)c1ccc(F)cc1)CC2` [Fluspirilen], the z.score.t is reported as −1.399.

In the case of `CC(C)C(=O)Nc1ccc([N+](=O)[O-])c(C(F)(F)F)c1` [Flutamide], the z.score.t is 0.5856.

In the case of `CCC(=O)O[C@]1(C(=O)SCF)[C@H](C)C[C@H]2[C@@H]3C[C@H](F)C4=CC(=O)C=C[C@]4(C)[C@@]3(F)[C@@H](O)C[C@@]21C` [Fluticasone propionate], the z.score.t is given as 0.1543.

Regarding `CC(C)n1c(/C=C/C(O)CC(O)CC(=O)O)c(-c2ccc(F)cc2)c2ccccc21` (stereo not drawn) [Fluvastatin sodium salt], the z.score.t is given as −0.4538.

For the compound `COCCCC/C(=N\OCCN)c1ccc(C(F)(F)F)cc1` [Fluvoxamine maleate], the z.score.t came out at 0.03957.

In the case of `Nc1nc2ncc(CNc3ccc(C(=O)N[C@@H](CCC(=O)O)C(=O)O)cc3)nc2c(=O)[nH]1` [Folic acid], the z.score.t came to 0.7312.

Regarding `Nc1nc(=O)c2c([nH]1)NCC(CNc1ccc(C(=O)N[C@@H](CCC(=O)[O-])C(=O)[O-])cc1)N2C=O.[Ca+2]` (stereo partly drawn) [Folinic acid calcium salt], the z.score.t is reported as 0.1244.

On to `O=C(O)c1ccccc1OP(=O)(O)O` [Fosfosal], for which the z.score.t is 0.495.

Consider `O=C1OC(CN2CCOCC2)CN1/N=C/c1ccc([N+](=O)[O-])o1` (stereo not drawn) [Furaltadone hydrochloride], for which the z.score.t was found to be 2.34.

Take `NS(=O)(=O)c1cc(C(=O)O)c(NCc2ccco2)cc1Cl` [Furosemide]: the z.score.t is recorded as −1.306.

Regarding `CC(=O)O[C@H]1C[C@@]2(C)[C@@H](C[C@@H](O)[C@H]3[C@@]4(C)CC[C@@H](O)[C@@H](C)[C@@H]4CC[C@@]32C)/C1=C(\CCC=C(C)C)C(=O)O` [Fusidic acid sodium salt], the z.score.t amounted to 0.6203.

With `Fc1ccc(C(OCCN2CCN(CCCc3ccccc3)CC2)c2ccc(F)cc2)cc1` [GBR 12909 dihydrochloride], the z.score.t was −1.092.

`COc1ccc(-c2ccc(=N)n(CCCC(=O)O)n2)cc1` [Gabazine]: the z.score.t is given as 1.252.

Regarding `CCOC(=O)c1ccc(OC(=O)CCCCCN=C(N)N)cc1.CS(=O)(=O)O` [Gabexate mesilate], the z.score.t was found to be 0.5136.

For the compound `CC[N+](CC)(CC)CCOc1cccc(OCC[N+](CC)(CC)CC)c1OCC[N+](CC)(CC)CC` [Gallamine triethiodide], the z.score.t is reported as −0.1538.

On to `Nc1nc(O)c2ncn(COC(CO)CO)c2n1` [Ganciclovir], for which the z.score.t is recorded as −0.5992.

Turning to `Cc1ccc(C)c(OCCCC(C)(C)C(=O)O)c1` [Gemfibrozil], the z.score.t stood at 0.4486.
